In data set [1] the test system is Klebsiella pneumoniae NCIMB 418. As to the kind of experiment: Biofilm formation in 96 well plate, crystal violet assay. It is filed as cell-based. As to conditions: for reduction of biofilm formation versus control: 24 hours, 37° C., FIG. 1 A. On the procedure:
(§1) FIG. 1: The effect of varying concentrations of DHA on the ability of Klebsiella pneumoniae NCIMB 418 (A) and Enterococcus faecalis ATCC 7080 (B) to form a biofilm in vitro. (10^6 CFU/well was incubated with various concentrations of DHA in a 96 well plate for 24 hours statically at 37° C. Biofilm formation was assessed using the crystal violet assay. Data represents the mean±SD for six independent experiments, carried out in triplicate. One-way ANOVA was performed for statistical analysis. *****P<0.001 compared to both the control (no DHA) and vehicle control (1% DMSO).
(§2) The effect of varying concentrations of DHA on the ability of Klebsiella pneumoniae NCIMB 418 and Enterococcus faecalis ATCC 7080 to form a biofilm in vitro was investigated. 10^6 CFU/well was incubated with various concentrations of DHA in a 96 well plate for 24 hours statically at 37° C. Biofilm formation was assessed using the crystal violet assay. Data represents the mean±SD for six independent experiments, carried out in triplicate. The assay involved seeding cells at 10^6 CFU/ml in media with DHA. Cells were then left for 24 hrs to form biofilms before washing and staining with Crystal Violet. Crystal violet adhered to cells stuck to the sides of the tube/well. The samples were washed again to remove any unbound dye before dissolving the stain in acetic acid and the reading was measured in a spectrophotometer. The colour intensity relates to the level of biofilm present. The more colour the more bacteria in the biofilm (Merrit, J. H, et al., (2005) “Growing and Analysing Static Biofilms”, Current Protocols in Microbiology, Chapter 1(July), p. Unit 1B.1.).

Data set [2] relates to Enterococcus faecalis ATCC 7080. The data set is described as above. It is filed as cell-based. As to conditions: for reduction of biofilm formation versus control: 24 hours, 37° C., FIG. 1 B. As for the experimental part: as §1, §2
Data set [3] deals with human periodontal ligament cells (hPDLCs). On the set-up: dose or concentration left out as unconfirmed. As to conditions: exposed for 24 and 48 hours; cited from earlier work.
Data set [4] relates to human gingival fibroblasts (HGFs). Further details: dose or concentration left out as unconfirmed. As to conditions: exposed for 24 and 48 hours; cited from earlier work.
Setting [5] is: summary statement on FIG. 1, concentration not stated.

On to `CC/C=C\C/C=C\C/C=C\C/C=C\C/C=C\C/C=C\CCC(=O)O` [DHA, docosahexaenoic acid], for which the “reduction of biofilm formation versus control” value is on record as around 40% in data set [1] (DHA 6.25 μM), around 65% in data set [1] (DHA 100 μM), around 20% in data set [2] (DHA 6.25 μM) and around 65% in data set [2] (DHA 100 μM). Also, the reducing biofilm formation entry in data set [1] (setting [5]) and in data set [2] (setting [5]) was “approximately 60%” each time. Moreover, the cytotoxic effects result in data set [3] and in data set [4] was “exhibited cytotoxic effects” throughout.
